Assay results reported in ChEMBL document CHEMBL5620387, “Discovery of 4'-trifluoromethylchalcones as novel, potent and selective hCYP1B1 inhibitors without concomitant AhR activation” (Eur J Med Chem, 2023).

What was measured:
[1] = target: T1, Cytochrome P450 1B1 (Homo sapiens, UniProt Q16678); assay: Inhibition of human recombinant CYP1B1 assessed as fluorescence of resorufin
T1 sequence (Q16678 whole entry): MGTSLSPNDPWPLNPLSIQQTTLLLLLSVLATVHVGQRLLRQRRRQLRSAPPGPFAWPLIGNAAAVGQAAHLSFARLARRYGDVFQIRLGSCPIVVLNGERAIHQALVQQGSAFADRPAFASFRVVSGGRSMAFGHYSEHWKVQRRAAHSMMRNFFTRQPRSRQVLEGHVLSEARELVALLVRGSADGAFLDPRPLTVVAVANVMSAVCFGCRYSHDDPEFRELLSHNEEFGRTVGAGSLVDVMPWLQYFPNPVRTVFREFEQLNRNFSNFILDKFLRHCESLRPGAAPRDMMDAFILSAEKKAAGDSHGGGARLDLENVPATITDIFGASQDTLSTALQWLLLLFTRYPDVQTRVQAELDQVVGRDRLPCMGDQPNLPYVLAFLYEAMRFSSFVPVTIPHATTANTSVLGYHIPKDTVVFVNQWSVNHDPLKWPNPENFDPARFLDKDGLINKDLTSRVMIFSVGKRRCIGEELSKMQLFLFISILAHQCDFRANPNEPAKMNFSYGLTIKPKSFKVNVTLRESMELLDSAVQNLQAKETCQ

[2] = target: T2, Cytochrome P450 1A1 (Homo sapiens, UniProt P04798); assay: Inhibition of human recombinant CYP1A1 assessed as fluorescence of resorufin; format: ADME
T2 sequence (P04798 whole entry): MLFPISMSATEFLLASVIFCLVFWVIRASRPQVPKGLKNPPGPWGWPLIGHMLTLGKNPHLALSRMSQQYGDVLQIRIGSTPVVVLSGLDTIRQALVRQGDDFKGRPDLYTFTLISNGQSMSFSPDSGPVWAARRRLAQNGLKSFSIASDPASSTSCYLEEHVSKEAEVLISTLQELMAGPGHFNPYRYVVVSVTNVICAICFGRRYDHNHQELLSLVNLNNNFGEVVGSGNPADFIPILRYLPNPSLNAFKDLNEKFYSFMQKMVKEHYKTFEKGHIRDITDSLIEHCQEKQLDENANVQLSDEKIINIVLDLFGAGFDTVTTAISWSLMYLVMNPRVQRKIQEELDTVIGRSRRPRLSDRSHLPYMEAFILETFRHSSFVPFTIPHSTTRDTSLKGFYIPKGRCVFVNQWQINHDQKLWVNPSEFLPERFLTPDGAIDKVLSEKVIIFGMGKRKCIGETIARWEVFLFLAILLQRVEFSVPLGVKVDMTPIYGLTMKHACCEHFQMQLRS

[3] = target: T3, Cytochrome P450 1A2 (Homo sapiens, UniProt P05177); assay: Inhibition of human recombinant CYP1A2 assessed as fluorescence of resorufin; format: ADME
T3 sequence (P05177 whole entry): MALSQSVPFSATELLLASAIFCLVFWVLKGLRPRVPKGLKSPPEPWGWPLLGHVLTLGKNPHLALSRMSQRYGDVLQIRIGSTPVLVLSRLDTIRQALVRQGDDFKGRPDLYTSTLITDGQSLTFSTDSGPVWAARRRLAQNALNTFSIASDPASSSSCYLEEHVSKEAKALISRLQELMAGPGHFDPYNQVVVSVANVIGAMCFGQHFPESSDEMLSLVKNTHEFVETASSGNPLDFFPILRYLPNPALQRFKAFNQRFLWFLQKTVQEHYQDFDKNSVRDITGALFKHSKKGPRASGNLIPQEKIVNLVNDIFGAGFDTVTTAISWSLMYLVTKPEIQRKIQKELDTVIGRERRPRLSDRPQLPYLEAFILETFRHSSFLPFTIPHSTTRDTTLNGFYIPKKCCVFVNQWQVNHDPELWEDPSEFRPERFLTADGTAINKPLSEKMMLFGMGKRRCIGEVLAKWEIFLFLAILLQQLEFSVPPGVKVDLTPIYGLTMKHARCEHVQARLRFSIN

[4] = target: T4, Aryl hydrocarbon receptor (Homo sapiens, UniProt P35869); assay: Antagonist activity at aryl hydrocarbon receptor (unknown origin) expressed in HEK293T cells assessed as luciferase activity at 10 uM measured after 24 hrs; format: toxicity, cell-based
T4 sequence (P35869 whole entry): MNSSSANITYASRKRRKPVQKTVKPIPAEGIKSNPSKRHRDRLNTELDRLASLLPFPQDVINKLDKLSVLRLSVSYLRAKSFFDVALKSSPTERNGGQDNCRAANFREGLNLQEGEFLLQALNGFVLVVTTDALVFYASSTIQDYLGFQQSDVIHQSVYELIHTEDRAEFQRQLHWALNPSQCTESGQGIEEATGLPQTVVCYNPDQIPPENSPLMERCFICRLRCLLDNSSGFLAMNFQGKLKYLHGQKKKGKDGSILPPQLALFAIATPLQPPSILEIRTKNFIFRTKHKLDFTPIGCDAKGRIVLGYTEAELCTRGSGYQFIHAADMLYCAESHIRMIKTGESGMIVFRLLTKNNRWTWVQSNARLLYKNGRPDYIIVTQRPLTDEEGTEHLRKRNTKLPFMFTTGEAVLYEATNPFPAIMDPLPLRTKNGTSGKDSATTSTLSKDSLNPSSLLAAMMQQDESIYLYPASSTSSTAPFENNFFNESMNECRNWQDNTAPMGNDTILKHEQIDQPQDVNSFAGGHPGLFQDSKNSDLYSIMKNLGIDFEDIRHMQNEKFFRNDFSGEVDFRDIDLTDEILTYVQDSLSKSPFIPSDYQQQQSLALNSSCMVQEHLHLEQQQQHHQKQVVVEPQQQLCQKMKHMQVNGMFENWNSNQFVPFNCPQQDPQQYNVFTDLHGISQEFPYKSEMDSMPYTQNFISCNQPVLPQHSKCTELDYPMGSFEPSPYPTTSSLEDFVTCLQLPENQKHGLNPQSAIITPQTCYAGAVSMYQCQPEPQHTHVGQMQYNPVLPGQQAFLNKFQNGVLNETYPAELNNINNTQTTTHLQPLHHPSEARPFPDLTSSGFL

[5] = Metabolic stability in human liver microsomes assessed as relative remaining concentration measured after 60 mins by LC-UV analysis; format: ADME, Microsome; details: read-out: INH
[6] = Metabolic stability in human liver microsomes assessed as half life measured after 60 mins by LC-UV analysis; format: ADME, Microsome
[7] = target: T4, Aryl hydrocarbon receptor; assay: Agonist activity at aryl hydrocarbon receptor (unknown origin) expressed in HEK293T cells assessed as luciferase activity at 10 uM measured after 24 hrs; format: toxicity, cell-based
[8] = target: T1, Cytochrome P450 1B1; assay: Inhibition of human CYP1B1 overexpressed in CHO cells assessed as intracellular protein inhibition measured at 10 to 100 uM after 3 hrs; format: cell-based; details: dose 10-100 µM

Row | Structure (SMILES) | IC50 [1] | IC50 [3] | further results
1 | COc1ccc(/C=C/C(=O)c2ccc(C(F)(F)F)cc2)c(OC)c1 | 4.72 nM | > 100000 nM | IC50 [2]: 1690 nM; Activity [4]: Active; remaining at 1 h [5]: 11.8%; half-life [6]: 28.9 min
2 | COc1cc(O)ccc1/C=C/C(=O)c1ccc(C(F)(F)F)cc1 |  | > 100000 nM | Activity [7]: Active; remaining at 1 h [5]: 21%; half-life [6]: 35.6 min
3 | O=C(/C=C/c1ccccc1)c1ccccc1 [CHALCONE] | 305 nM |  | 
4 | Nc1ccc(C(=O)/C=C/c2ccccc2)cc1 | 1060 nM |  | 
5 | O=C(/C=C/c1ccccc1)c1ccc(Cl)cc1 | 43 nM |  | 
6 | COc1cc(O)c(Cl)cc1/C=C/C(=O)c1ccc(C(F)(F)F)cc1 |  | > 100000 nM | Activity [7]: Active
7 | COc1cc(OC(C)=O)ccc1/C=C/C(=O)c1ccc(C(F)(F)F)cc1 |  | > 100000 nM | 
8 | O=c1cc(-c2ccccc2)oc2c1ccc1ccccc12 [ALPHA-NAPHTHOFLAVONE] |  |  | IC50 [2]: 7.41 nM; inhibition (INH) [8]: Dose-Dependent Effect

Second part, led by results:

Row | IC50 [1] | IC50 [3] | Structure (SMILES) | further results
9 |  | > 100000 nM | COc1ccc(/C=C/C(=O)c2ccc(C(F)(F)F)cc2)cc1 | 
10 |  | > 100000 nM | CCOc1ccc(/C=C/C(=O)c2ccc(C(F)(F)F)cc2)cc1 | 
11 |  | > 100000 nM | O=C(/C=C/c1ccc(F)cc1)c1ccc(C(F)(F)F)cc1 | 
12 | 26.2 nM | > 100000 nM | O=C(/C=C/c1ccccc1)c1ccc(C(F)(F)F)cc1 | IC50 [2]: 274 nM
13 |  | > 100000 nM | Cc1ccc(/C=C/C(=O)c2ccc(C(F)(F)F)cc2)cc1 | 
14 |  | > 100000 nM | O=C(/C=C/c1ccc(O)cc1)c1ccc(C(F)(F)F)cc1 | 
15 | 31 nM |  | Cc1ccc(C(=O)/C=C/c2ccccc2)cc1 | 
